Results as given in the kinase profiling compilation of Christmann-Franck et al. (2016).

How the values were obtained:
Test in all cases: KINOMEscan competition binding
[1] = tested on: ABL1 (human), P00519 [E255K]
ADCK4 (human) = ADCK4 (human) (UniProt Q96D53)
AURKC (human) = AURKC (human) (UniProt Q9UQB9)
CASK (human) = CASK (human) (UniProt O14936)
CDKL3 (human) = CDKL3 (human) (UniProt Q8IVW4)
CHEK1 (human) = CHEK1 (human) (UniProt O14757)
CSF1R (human) = CSF1R (human) (UniProt P07333)
CSNK1G3 (human) = CSNK1G3 (human) (UniProt Q9Y6M4)
CaMK1 (human) = CaMK1 (human) (UniProt Q14012)
DAPK1 (human) = DAPK1 (human) (UniProt P53355)
EPHA2 (human) = EPHA2 (human) (UniProt P29317)
EPHA4 (human) = EPHA4 (human) (UniProt P54764)
[2] = tested on: FGFR3 (human), P22607 [G697C]
FGR (human) = FGR (human) (UniProt P09769)
FLT1 (human) = FLT1 (human) (UniProt P17948)
GSK3A (human) = GSK3A (human) (UniProt P49840)
ICK (human) = ICK (human) (UniProt Q9UPZ9)
IKBKE (human) = IKBKE (human) (UniProt Q14164)
IRAK1 (human) = IRAK1 (human) (UniProt P51617)
IRAK4 (human) = IRAK4 (human) (UniProt Q9NWZ3)
ITK (human) = ITK (human) (UniProt Q08881)
[3] = target: JAK1 JH1 catalytic (human) (UniProt P23458)
KDR (human) = KDR (human) (UniProt P35968)
LRRK2 (human) = LRRK2 (human) (UniProt Q5S007)
[4] = tested on: LRRK2 (human), Q5S007 [G2019S]
MAP3K3 (human) = MAP3K3 (human) (UniProt Q99759)
MYLK4 (human) = MYLK4 (human) (UniProt Q86YV6)
NEK3 (human) = NEK3 (human) (UniProt P51956)
NEK5 (human) = NEK5 (human) (UniProt Q6P3R8)
PDGFRB (human) = PDGFRB (human) (UniProt P09619)
PIK3C2G (human) = PIK3C2G (human) (UniProt O75747)
PKN2 (human) = PKN2 (human) (UniProt Q16513)
PRKCQ (human) = PRKCQ (human) (UniProt Q04759)
PRKG2 (human) = PRKG2 (human) (UniProt Q13237)
RIPK2 (human) = RIPK2 (human) (UniProt O43353)
RPS6KA1 KD1 (human) = RPS6KA1 KD1 (human) (UniProt Q15418)
RPS6KA2 KD1 (human) = RPS6KA2 KD1 (human) (UniProt Q15349)
RPS6KA3 KD1 (human) = RPS6KA3 KD1 (human) (UniProt P51812)
STK17A (human) = STK17A (human) (UniProt Q9UEE5)
STK35 (human) = STK35 (human) (UniProt Q8TDR2)
TYRO3 (human) = TYRO3 (human) (UniProt Q06418)
ULK2 (human) = ULK2 (human) (UniProt Q8IYT8)

Chain of CASK (human) (O14936 whole entry, looked up): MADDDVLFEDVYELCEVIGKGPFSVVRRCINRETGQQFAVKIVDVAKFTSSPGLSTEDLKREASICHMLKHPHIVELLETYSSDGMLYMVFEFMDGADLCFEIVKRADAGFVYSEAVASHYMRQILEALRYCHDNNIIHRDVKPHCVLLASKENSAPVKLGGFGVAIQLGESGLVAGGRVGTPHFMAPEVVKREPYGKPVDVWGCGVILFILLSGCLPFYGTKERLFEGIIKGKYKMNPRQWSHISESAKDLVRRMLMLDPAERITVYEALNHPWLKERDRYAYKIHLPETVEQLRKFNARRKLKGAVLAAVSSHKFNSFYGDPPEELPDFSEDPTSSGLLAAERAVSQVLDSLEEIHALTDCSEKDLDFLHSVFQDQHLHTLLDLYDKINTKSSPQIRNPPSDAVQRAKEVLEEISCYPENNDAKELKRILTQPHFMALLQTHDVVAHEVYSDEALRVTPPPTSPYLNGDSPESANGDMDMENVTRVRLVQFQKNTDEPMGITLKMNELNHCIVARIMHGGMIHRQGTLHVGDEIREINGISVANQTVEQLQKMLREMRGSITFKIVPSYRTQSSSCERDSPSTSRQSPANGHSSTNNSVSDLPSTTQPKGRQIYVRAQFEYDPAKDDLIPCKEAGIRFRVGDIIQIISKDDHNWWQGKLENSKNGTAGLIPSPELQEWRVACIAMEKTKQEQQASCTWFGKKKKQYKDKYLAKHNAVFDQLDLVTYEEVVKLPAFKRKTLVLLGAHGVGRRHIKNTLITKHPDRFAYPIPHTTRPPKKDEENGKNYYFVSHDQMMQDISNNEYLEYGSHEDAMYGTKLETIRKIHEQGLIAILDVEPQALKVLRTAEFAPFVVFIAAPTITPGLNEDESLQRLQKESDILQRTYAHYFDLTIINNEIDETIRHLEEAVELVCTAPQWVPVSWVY
Chain of ITK (human) (Q08881 whole entry, looked up): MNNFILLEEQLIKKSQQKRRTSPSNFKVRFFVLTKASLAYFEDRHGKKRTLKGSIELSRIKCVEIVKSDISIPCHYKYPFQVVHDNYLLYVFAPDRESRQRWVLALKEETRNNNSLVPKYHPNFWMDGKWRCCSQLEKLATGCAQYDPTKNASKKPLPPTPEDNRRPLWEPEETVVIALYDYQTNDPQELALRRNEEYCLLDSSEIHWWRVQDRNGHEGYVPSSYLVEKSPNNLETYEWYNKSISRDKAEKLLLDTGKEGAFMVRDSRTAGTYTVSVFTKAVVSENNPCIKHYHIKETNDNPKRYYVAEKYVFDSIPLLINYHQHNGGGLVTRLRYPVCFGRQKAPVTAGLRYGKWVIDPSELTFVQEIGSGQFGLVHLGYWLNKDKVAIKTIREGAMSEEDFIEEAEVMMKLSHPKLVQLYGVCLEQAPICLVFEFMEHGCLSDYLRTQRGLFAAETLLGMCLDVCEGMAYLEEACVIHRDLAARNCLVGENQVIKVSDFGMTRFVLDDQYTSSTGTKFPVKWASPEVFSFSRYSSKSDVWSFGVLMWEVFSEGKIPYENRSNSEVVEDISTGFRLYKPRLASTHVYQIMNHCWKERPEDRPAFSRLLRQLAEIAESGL
Chain of KDR (human) (P35968 whole entry, looked up): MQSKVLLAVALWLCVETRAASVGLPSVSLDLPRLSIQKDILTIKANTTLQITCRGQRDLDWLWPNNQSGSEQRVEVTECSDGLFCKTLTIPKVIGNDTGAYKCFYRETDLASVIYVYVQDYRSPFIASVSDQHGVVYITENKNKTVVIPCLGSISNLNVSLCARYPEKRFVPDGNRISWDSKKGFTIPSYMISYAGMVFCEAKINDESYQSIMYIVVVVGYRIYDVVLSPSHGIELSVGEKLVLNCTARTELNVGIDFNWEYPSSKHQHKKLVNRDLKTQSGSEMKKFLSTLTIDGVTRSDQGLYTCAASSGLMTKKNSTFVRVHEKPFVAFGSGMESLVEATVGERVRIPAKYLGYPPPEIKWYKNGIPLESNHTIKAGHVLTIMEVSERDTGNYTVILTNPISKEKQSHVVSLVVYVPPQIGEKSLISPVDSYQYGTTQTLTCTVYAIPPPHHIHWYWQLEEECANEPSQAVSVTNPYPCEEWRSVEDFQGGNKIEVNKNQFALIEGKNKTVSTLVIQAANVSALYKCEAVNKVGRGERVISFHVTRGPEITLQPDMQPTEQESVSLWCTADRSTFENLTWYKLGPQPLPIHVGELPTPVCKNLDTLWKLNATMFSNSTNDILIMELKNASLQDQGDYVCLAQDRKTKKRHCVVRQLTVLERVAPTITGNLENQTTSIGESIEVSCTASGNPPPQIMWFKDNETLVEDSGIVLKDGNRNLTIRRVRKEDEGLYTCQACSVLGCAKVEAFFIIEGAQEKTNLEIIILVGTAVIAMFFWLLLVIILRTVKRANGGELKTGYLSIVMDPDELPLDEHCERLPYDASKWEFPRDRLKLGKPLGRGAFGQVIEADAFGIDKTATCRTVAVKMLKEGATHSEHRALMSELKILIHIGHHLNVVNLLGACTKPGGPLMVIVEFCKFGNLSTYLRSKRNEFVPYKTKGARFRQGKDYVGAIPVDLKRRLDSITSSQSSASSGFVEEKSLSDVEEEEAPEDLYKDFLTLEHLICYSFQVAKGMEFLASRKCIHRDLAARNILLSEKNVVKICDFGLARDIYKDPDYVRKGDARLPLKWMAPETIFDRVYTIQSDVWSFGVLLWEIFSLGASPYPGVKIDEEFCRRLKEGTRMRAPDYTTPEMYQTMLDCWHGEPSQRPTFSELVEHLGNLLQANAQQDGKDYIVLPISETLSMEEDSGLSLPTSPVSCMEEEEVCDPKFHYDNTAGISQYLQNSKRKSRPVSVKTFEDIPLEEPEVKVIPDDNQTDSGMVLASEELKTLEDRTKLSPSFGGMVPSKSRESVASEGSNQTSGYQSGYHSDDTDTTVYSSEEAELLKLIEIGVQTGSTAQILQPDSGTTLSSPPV
Chain of PKN2 (human) (Q16513 whole entry, looked up): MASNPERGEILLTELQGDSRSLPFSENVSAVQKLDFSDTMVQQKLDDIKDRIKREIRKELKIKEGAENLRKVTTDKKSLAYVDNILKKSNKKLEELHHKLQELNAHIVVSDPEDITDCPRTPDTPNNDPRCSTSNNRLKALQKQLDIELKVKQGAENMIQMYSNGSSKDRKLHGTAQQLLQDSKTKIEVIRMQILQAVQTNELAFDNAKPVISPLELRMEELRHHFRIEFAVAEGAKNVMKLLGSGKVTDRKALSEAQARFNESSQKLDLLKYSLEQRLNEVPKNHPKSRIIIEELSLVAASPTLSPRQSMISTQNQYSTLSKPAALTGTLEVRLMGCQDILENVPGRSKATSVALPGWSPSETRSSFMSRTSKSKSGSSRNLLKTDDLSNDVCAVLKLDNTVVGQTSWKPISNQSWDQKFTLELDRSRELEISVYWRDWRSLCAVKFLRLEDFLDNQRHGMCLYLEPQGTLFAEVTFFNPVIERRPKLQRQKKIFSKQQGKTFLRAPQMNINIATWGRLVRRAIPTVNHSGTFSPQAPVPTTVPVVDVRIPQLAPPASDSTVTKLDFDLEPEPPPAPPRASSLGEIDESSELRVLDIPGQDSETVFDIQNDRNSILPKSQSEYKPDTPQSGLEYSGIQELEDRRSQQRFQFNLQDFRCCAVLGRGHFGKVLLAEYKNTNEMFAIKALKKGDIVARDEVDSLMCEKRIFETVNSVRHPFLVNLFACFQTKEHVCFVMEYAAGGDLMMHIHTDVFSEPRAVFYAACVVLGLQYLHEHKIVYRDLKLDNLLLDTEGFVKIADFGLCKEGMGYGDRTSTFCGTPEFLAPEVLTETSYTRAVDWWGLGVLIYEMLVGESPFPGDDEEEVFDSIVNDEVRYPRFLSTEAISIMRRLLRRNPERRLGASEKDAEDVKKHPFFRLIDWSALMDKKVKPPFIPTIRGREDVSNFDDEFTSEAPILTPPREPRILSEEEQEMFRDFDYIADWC
Chain of FGR (human) (P09769 whole entry, looked up): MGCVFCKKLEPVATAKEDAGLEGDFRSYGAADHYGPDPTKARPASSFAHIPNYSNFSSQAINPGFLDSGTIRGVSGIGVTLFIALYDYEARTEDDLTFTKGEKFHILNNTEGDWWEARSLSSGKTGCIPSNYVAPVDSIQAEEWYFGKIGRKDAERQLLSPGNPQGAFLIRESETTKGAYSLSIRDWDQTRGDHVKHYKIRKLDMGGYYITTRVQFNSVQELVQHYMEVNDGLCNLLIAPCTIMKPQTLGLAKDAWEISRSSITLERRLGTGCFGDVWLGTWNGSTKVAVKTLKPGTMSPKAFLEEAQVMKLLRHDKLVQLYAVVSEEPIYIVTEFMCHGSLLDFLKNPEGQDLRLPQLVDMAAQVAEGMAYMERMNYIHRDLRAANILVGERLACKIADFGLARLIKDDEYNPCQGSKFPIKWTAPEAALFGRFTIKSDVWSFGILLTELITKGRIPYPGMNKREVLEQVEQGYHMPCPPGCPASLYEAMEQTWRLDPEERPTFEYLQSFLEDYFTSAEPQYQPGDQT
Chain of CaMK1 (human) (Q14012 whole entry, looked up): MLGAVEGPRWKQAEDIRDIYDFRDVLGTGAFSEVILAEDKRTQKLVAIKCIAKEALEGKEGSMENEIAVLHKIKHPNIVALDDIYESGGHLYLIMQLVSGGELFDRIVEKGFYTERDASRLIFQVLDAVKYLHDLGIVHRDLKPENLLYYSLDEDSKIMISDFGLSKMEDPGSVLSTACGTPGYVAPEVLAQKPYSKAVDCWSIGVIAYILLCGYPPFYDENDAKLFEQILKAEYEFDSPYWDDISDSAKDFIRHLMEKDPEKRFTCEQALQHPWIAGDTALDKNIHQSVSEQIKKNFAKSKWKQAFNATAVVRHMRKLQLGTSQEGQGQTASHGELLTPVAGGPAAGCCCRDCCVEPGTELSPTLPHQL

For CN(C)C/C=C/C(=O)Nc1cccc(C(=O)Nc2ccc(Nc3nccc(-c4c(-c5ccccc5)nn5ccccc45)n3)cc2)c1, the kinase still bound, per cent of control ([1]; compound 1.0 µM) was 12%, the kinase still bound, per cent of control (ADCK4 (human); compound 1.0 µM) was 0% and the kinase still bound, per cent of control (AURKC (human); compound 1.0 µM) was 84%. It also gave a kinase still bound, per cent of control (CASK (human); compound 1.0 µM) of 52%, a kinase still bound, per cent of control (CDKL3 (human); compound 1.0 µM) of 100% and a kinase still bound, per cent of control (CHEK1 (human); compound 1.0 µM) of 100%. It also gave a kinase still bound, per cent of control (CSF1R (human); compound 1.0 µM) of 6%, a kinase still bound, per cent of control (CSNK1G3 (human); compound 1.0 µM) of 1.2% and a kinase still bound, per cent of control (CaMK1 (human); compound 1.0 µM) of 100%. The kinase still bound, per cent of control (DAPK1 (human); compound 1.0 µM) was 94%, the kinase still bound, per cent of control (EPHA2 (human); compound 1.0 µM) was 76% and the kinase still bound, per cent of control (EPHA4 (human); compound 1.0 µM) was 89%. For the same molecule, the kinase still bound, per cent of control ([2]; compound 1.0 µM) was 93%, the kinase still bound, per cent of control (FGR (human); compound 1.0 µM) was 10% and the kinase still bound, per cent of control (FLT1 (human); compound 1.0 µM) was 9.3%. The kinase still bound, per cent of control (GSK3A (human); compound 1.0 µM) was 38%, the kinase still bound, per cent of control (ICK (human); compound 1.0 µM) was 100% and the kinase still bound, per cent of control (IKBKE (human); compound 1.0 µM) was 95%. For the same molecule, the kinase still bound, per cent of control (IRAK1 (human); compound 1.0 µM) was 2%, the kinase still bound, per cent of control (IRAK4 (human); compound 1.0 µM) was 84% and the kinase still bound, per cent of control (ITK (human); compound 1.0 µM) was 100%. It also gave a kinase still bound, per cent of control ([3]; compound 1.0 µM) of 89%, a kinase still bound, per cent of control (KDR (human); compound 1.0 µM) of 17% and a kinase still bound, per cent of control (LRRK2 (human); compound 1.0 µM) of 72%. For the same molecule, the kinase still bound, per cent of control ([4]; compound 1.0 µM) was 100%, the kinase still bound, per cent of control (MAP3K3 (human); compound 1.0 µM) was 68% and the kinase still bound, per cent of control (MYLK4 (human); compound 1.0 µM) was 100%. The kinase still bound, per cent of control (NEK3 (human); compound 1.0 µM) was 99%, the kinase still bound, per cent of control (NEK5 (human); compound 1.0 µM) was 98% and the kinase still bound, per cent of control (PDGFRB (human); compound 1.0 µM) was 0.2%. It also gave a kinase still bound, per cent of control (PIK3C2G (human); compound 1.0 µM) of 100%, a kinase still bound, per cent of control (PKN2 (human); compound 1.0 µM) of 100% and a kinase still bound, per cent of control (PRKCQ (human); compound 1.0 µM) of 28%. For the same molecule, the kinase still bound, per cent of control (PRKG2 (human); compound 1.0 µM) was 83%, the kinase still bound, per cent of control (RIPK2 (human); compound 1.0 µM) was 12% and the kinase still bound, per cent of control (RPS6KA1 KD1 (human); compound 1.0 µM) was 100%. It also gave a kinase still bound, per cent of control (RPS6KA2 KD1 (human); compound 1.0 µM) of 86%, a kinase still bound, per cent of control (RPS6KA3 KD1 (human); compound 1.0 µM) of 50% and a kinase still bound, per cent of control (STK17A (human); compound 1.0 µM) of 93%. For the same molecule, the kinase still bound, per cent of control (STK35 (human); compound 1.0 µM) was 94%, the kinase still bound, per cent of control (TYRO3 (human); compound 1.0 µM) was 81% and the kinase still bound, per cent of control (ULK2 (human); compound 1.0 µM) was 100%.

Cc1ccc(NC(=O)c2ccc(NC(=O)/C=C/CN(C)C)cc2)cc1Nc1nccc(-c2cccnc2)n1 showed a kinase still bound, per cent of control ([1]; compound 10.0 µM) of 64%, a kinase still bound, per cent of control (ADCK4 (human); compound 10.0 µM) of 60% and a kinase still bound, per cent of control (AURKC (human); compound 10.0 µM) of 67%. It also gave a kinase still bound, per cent of control (CASK (human); compound 10.0 µM) of 79%, a kinase still bound, per cent of control (CDKL3 (human); compound 10.0 µM) of 100% and a kinase still bound, per cent of control (CHEK1 (human); compound 10.0 µM) of 100%. For the same molecule, the kinase still bound, per cent of control (CSF1R (human); compound 10.0 µM) was 9.2%, the kinase still bound, per cent of control (CSNK1G3 (human); compound 10.0 µM) was 71% and the kinase still bound, per cent of control (CaMK1 (human); compound 10.0 µM) was 75%. It also gave a kinase still bound, per cent of control (DAPK1 (human); compound 10.0 µM) of 72%, a kinase still bound, per cent of control (EPHA2 (human); compound 10.0 µM) of 90% and a kinase still bound, per cent of control (EPHA4 (human); compound 10.0 µM) of 100%. It also gave a kinase still bound, per cent of control ([2]; compound 10.0 µM) of 97%, a kinase still bound, per cent of control (FGR (human); compound 10.0 µM) of 80% and a kinase still bound, per cent of control (FLT1 (human); compound 10.0 µM) of 91%. It also gave a kinase still bound, per cent of control (GSK3A (human); compound 10.0 µM) of 100%, a kinase still bound, per cent of control (ICK (human); compound 10.0 µM) of 82% and a kinase still bound, per cent of control (IKBKE (human); compound 10.0 µM) of 100%. For the same molecule, the kinase still bound, per cent of control (IRAK1 (human); compound 10.0 µM) was 13%, the kinase still bound, per cent of control (IRAK4 (human); compound 10.0 µM) was 81% and the kinase still bound, per cent of control (ITK (human); compound 10.0 µM) was 100%. It also gave a kinase still bound, per cent of control ([3]; compound 10.0 µM) of 100%, a kinase still bound, per cent of control (KDR (human); compound 10.0 µM) of 85% and a kinase still bound, per cent of control (LRRK2 (human); compound 10.0 µM) of 41%. The kinase still bound, per cent of control ([4]; compound 10.0 µM) was 48%, the kinase still bound, per cent of control (MAP3K3 (human); compound 10.0 µM) was 81% and the kinase still bound, per cent of control (MYLK4 (human); compound 10.0 µM) was 55%. The kinase still bound, per cent of control (NEK3 (human); compound 10.0 µM) was 99%, the kinase still bound, per cent of control (NEK5 (human); compound 10.0 µM) was 51% and the kinase still bound, per cent of control (PDGFRB (human); compound 10.0 µM) was 0%. It also gave a kinase still bound, per cent of control (PIK3C2G (human); compound 10.0 µM) of 100%, a kinase still bound, per cent of control (PKN2 (human); compound 10.0 µM) of 91% and a kinase still bound, per cent of control (PRKCQ (human); compound 10.0 µM) of 100%. For the same molecule, the kinase still bound, per cent of control (PRKG2 (human); compound 10.0 µM) was 74%, the kinase still bound, per cent of control (RIPK2 (human); compound 10.0 µM) was 67% and the kinase still bound, per cent of control (RPS6KA1 KD1 (human); compound 10.0 µM) was 63%. For the same molecule, the kinase still bound, per cent of control (RPS6KA2 KD1 (human); compound 10.0 µM) was 76%, the kinase still bound, per cent of control (RPS6KA3 KD1 (human); compound 10.0 µM) was 52% and the kinase still bound, per cent of control (STK17A (human); compound 10.0 µM) was 1.6%. The kinase still bound, per cent of control (STK35 (human); compound 10.0 µM) was 82%, the kinase still bound, per cent of control (TYRO3 (human); compound 10.0 µM) was 100% and the kinase still bound, per cent of control (ULK2 (human); compound 10.0 µM) was 30%.
